Laboratory results: patent publication US4900749A, “Isoprenoidamine compounds useful as antiulcer agents” (Shionogi & Co., Ltd., priority 1985, dated 1990)

What was measured:
lesion formation = experiment: inhibition of 60% ethanol/150 mM hydrochloric acid-induced stomach lesion formation (Experiment 1); assay type: in vivo, Male SD rats; conditions: Rattus norvegicus, 1 h
Procedure: Male SD rats, weighing 200-300 g, were allowed to fast for 24 hours. One milliliter of 60% ethanol (v/v) in 150 mM hydrochloric acid was given orally 1 hour after oral or intraperitoneal administration of test compound as a suspension in 5% gum arabic, and the animals were killed with an overdose of ether 1 hour later. The stomachs were removed and opened along the greater curvature. The total length (mm) of each lesion was measured for use as the lesion index and inhibition (%) of lesion formation by the test compound was calculated by comparing with that of 5% gum arabic as control.
Geranylgeranylacetone (hereinafter abbreviated as GGA) was employed as a reference compound.

acid secretion = experiment: inhibition of histamine-stimulated gastric acid secretion in perfused stomach (Experiment 2); assay type: in vivo, Male Jcl SD rats; conditions: intraduodenal, during 90 minutes after administration, histamine dihydrochloride 3 mg/kg/hr
Procedure: Male Jcl SD rats (body weight; about 300 g) were fast for 24 hours and anesthetized by urethane. Cannula was put into the trachea and into a jugular vein. After midline laparotomy, perfusion cannulae were introduced into the stomach through the pylorus and the esophagus. The animal was perfused with saline (1 ml/min) at 37° C. through the esophagus cannula. Perfusate was collected every 15 minutes through the pylorus cannula and titrated with 0.01N sodium hydroxide to measure acid secretion. Histamine dihydrochloride (3 mg/kg/hr) was infused through the jugular vein cannula and the test compound was administered intraduodenaly 90 minutes later. Acid output in perfusate every 15 minutes was measured in the same manner as described above. The rate of maximum inhibition (%) of acid secretion was calculated during 90 minutes after administration of the test compound compared with the acid output just before administration of the test compound.

[1] = ip, Intraperitoneal administration

SMILES	inhibition in vivo at 20 mg/kg (lesion formation; Oral administration) [%]	inhibition in vivo at 20 mg/kg (lesion formation; [1]) [%]	also measured
CC(=O)NCC=C(C)CCC=C(C)CCC=C(C)CCC=C(C)C [Compound I-2, N-(3,7,11,15-Tetramethyl-2,6,10,14-hexadecatetraenyl)acetamide]	46.6		inhibition in vivo at 10 mg/kg (lesion formation; [1]): 71.7%
COCC(=O)NCC=C(C)CCC=C(C)CCC=C(C)CCC=C(C)C [Compound I-4]	29.3	88.4	
CC(C)=CCCC(C)=CCCC(C)=CCCC(C)=CCNC(=O)c1ccccc1 [Compound I-9]		64.2	
CC(C)=CCCC(C)=CCCC(C)=CCCC(C)=CCNC(=O)c1ccco1 [Compound I-12]			inhibition in vivo at 10 mg/kg (lesion formation; [1]): 39.4%
CC(C)=CCCC(C)=CCCC(C)=CCCC(C)=CCNC(=O)Cc1ccccc1 [Compound I-13]		65.3	
CC(C)=CCCC(C)=CCCC(C)=CCCC(C)=CCNC(=O)c1ccc([N+](=O)[O-])cc1 [Compound I-18]		75.1	
CC(C)=CCCC(C)=CCCC(C)=CCCC(C)=CCNC(=O)c1ccccn1 [Compound I-20]	24.2	83.1	
CC(C)=CCCC(C)=CCCC(C)=CCCC(C)=CCNC(=O)c1cccnc1 [Compound I-21]	64.5	99	
CC(C)=CCCC(C)=CCCC(C)=CCCC(C)=CCNC(=O)c1ccncc1 [Compound I-22, N-(3,7,11,15-Tetramethyl-2,6,10,14 hexadecatetraenyl)isonicotinamide]	86.1	85.6	
CC(C)=CCCC(C)=CCCC(C)=CCCC(C)=CCNC(=O)c1cccs1 [Compound I-24]	11.8		inhibition in vivo at 10 mg/kg (lesion formation; [1]): 62.1%
CC(C)=CCCC(C)=CCCC(C)=CCCC(C)=CCNC(=O)c1ccc[nH]1 [Compound I-26]	9.6		inhibition in vivo at 10 mg/kg (lesion formation; [1]): 59.1%
CC(C)=CCCC(C)=CCCC(C)=CCCC(C)=CCNC(=O)c1cnccn1 [Compound I-28]		80.4	
CC(C)=CCCC(C)=CCCC(C)=CCCC(C)=CCNC(=O)Cc1ccccn1 [Compound I-29]			inhibition in vivo at 10 mg/kg (lesion formation; [1]): 64.3%
CC(C)=CCCC(C)=CCCC(C)=CCCC(C)=CCNC(=O)Cc1cccnc1 [Compound I-30]	85.1	93.6	Inhibition (%): rate of maximum inhibition of acid secretion (acid secretion; 20 mg/kg): 57.4%; Inhibition (%): rate of maximum inhibition of acid secretion (acid secretion; 50 mg/kg): 99.5%
CC(C)=CCCC(C)=CCCC(C)=CCCC(C)=CCNC(=O)Cc1c[nH]cn1 [Compound I-31]		91	
CC(C)=CCCC(C)=CCCC(C)=CCCC(C)=CCNC(=O)CC#N [Compound I-36]	56.4	72.2	
CC(C)=CCCC(C)=CCCC(C)=CCCC(C)=CCNC(=O)N1CCOCC1 [Compound I-55, 1-[N-(3,7,11,15-Tetramethyl-2,6,10,14-hexadecatetraenyl)carbamoyl]morpholine]			inhibition in vivo at 10 mg/kg (lesion formation; Oral administration): 22.2%; inhibition in vivo at 10 mg/kg (lesion formation; [1]): 76.7%; Inhibition (%): rate of maximum inhibition of acid secretion (acid secretion; 20 mg/kg): 51.1%; Inhibition (%): rate of maximum inhibition of acid secretion (acid secretion; 50 mg/kg): 77.7%
CC(C)=CCCC(C)=CCCC(C)=CCCC(C)=CCNC(=O)N1CCCCC1 [Compound I-56]		79.4	
CC(C)=CCCC(C)=CCCC(C)=CCCC(C)=CCNC(N)=O [Compound I-57]		84	inhibition in vivo at 10 mg/kg (lesion formation; Oral administration): 36.2%
CC(C)=CCCC(C)=CCCC(C)=CCCC(C)=CCNC(=O)N1CCN(C)CC1 [Compound I-59]		53.3	
CC(C)=CCCC(C)=CCCC(C)=CCCC(C)=CCNC(=O)N1CCN(Cc2ccc3c(c2)OCO3)CC1 [Compound I-62]		46.1	
CC(C)=CCCC(C)=CCCC(C)=CCCC(C)=CCNC(=O)NCCCN1CCOCC1 [Compound I-65]		35.5	
CC(C)=CCCC(C)=CCCC(C)=CCCC(C)=CCNC(=O)NCc1cccnc1 [Compound I-71]	44.2	68.5	
CC(C)=CCCC(C)=CCCC(C)=CCCC(C)=CCNC(=O)N(C)C [Compound I-81, N,N-Dimethyl-N'-(3,7,11,15-tetramethyl-2,6,10,14-hexadecatetraenyl)urea]	23.9	78.2	
CC(C)=CCCC(C)=CCCC(C)=CCCC(C)=CCNC(=O)Nc1ccccc1 [Compound I-82]		62.7	
CC(=O)CCC=C(C)CCC=C(C)CCC=C(C)CCC=C(C)C [GGA, Geranylgeranylacetone, reference compound]	37.7		inhibition in vivo at 50 mg/kg (lesion formation; ip, Intraperitoneal administration, 50 mg/kg): 81%
